According to publication PMC8588271 (Molecules, 2021):
Entries after “also recorded” stand apart in the source; their conditions may differ.

Key:
[1] = DPPH radical scavenging assay (in vitro); conditions: 0.1 mM DPPH in MeOH, 30 min dark, room temperature, 540 nm
BACE-1 = target: T1, BACE-1 (Homo sapiens, UniProt P56817); assay: BACE-1 FRET inhibition assay; format: biochemical; conditions: FRET kit, 60 min room temperature, triplicate, tested up to 50 µM
T1 construct: purchased PanVera (Madison, WI, USA) / Thermo Fisher Scientific P2985
Description: The experiments were each performed in triplicates for all of the compounds.
A BACE-1 inhibition assay was conducted using a β-Secretase FRET kit (BACE-1, Thermo Fisher Sientific, San Diego, CA, USA) according to manufacturer instructions. […] The sample was diluted further in assay buffer (final concentrations of 50, 25, 12.5, 6.25, 3.12, 1.56, 0.78, 0.39, 0.2, and 0.1 µM in each well) and black 96-well microplates were mixed with 10 µL of BACE-1 substrate. Then, 10 µL of 3 × BACE-1 enzyme was added to each well to start the reaction. Plates were incubated at room temperature in the dark for 60 min. After incubation, 10 µL of 2.5 mM sodium acetate was added to each well to stop the reaction. Finally, multiwell spectrofluorometer instruments were used for a multimode plate reader (Multistkan^TM GO, Thermo Scientific, Waltham, MA, USA) at an excitation wavelength of 545 nm and an emission wavelength of 585 nm. The half-maximal inhibitory concentration (IC50) was calculated by plotting the obtained relative fluorescence unit per hour (RFU/h) against the logarithmic of the inhibitor concentration. All determinations were performed in triplicate.

RAW 264.7 cells [2] = assay: Nitric oxide production (Griess reagent) in LPS-stimulated cells; format: cell-based, murine; conditions: RAW 264.7, 1 h pretreatment, LPS 0.5 μg/mL 24 h
Description: (§1) The macrophage-like murine cell line RAW 264.7 (KCLB number 40071; Korean Cell Line Bank, Seoul, Korea) was cultured in Dulbecco’s Modified Eagle Medium (DMEM, Sigma-Aldrich, St. Louis, MO, USA) supplemented with 10% heat-inactivated fetal bovine serum (FBS, Invitrogen, Burlington, ON, Canada) and 1% (w/v) antibiotic–antimycotic solution (Invitrogen, Grand Island, NY, USA) at 5% CO2 and 37 °C.
Nitrite accumulation was used as an indicator of NO production in the medium, and the nitrite level was determined by assaying the culture supernatants for nitrite using the Griess reagent (1% sulfanilamide, 0.1% N-(1-naphathyl)-ethylenediamine dihydrochloride, and 5% phosphoric acid). […] Then, 100 μL of cell culture supernatants were mixed with 100 μL of Griess reagent in a 96-well plate. Sodium nitrite was used to generate a standard curve and the concentration of nitrite was then measured by the absorbance at 540 nm using a microplate reader. All determinations were performed in triplicate.

RAW 264.7 cells [3] = assay: MTT cytotoxicity assay; format: cell-based, murine; conditions: RAW 264.7, 24 h
Description: as §1
Cell cytotoxicity was determined by an MTT (3-(4,5)-dimethylthiazol-2-yl-2,5-diphenyltetrazolium bromide, Amresco, Solon, OH, USA) colorimetric assay. […] After incubation with test substances, MTT solutions (5 μL of a 5 mg/mL concentration in PBS) were added to the wells and incubated for 4 h at 37 °C. Then, treated with 100 μL of fresh DMSO to dissolve the crystals for 10 min, the cells were detected under a microplate reader (Thermo Scientific Inc., San Diego, CA, USA) to measure the absorbance at 570 nm. Relative cell viability was calculated by comparing the absorbance of the untreated control group. All experiments were performed in triplicate.

[4] = Stability in aqueous solution by HPLC purity; format: physicochemical; conditions: 10 mM in water, room temperature, HPLC UV 254 nm; ramalin started at 98%
Text: Therefore, to improve its stability and BBB penetration capacity, its structure was modified by replacing the phenolic hydroxyl groups at position two with either a methyl group or a fluorine atom and by changing their positions. Thus, several derivatives were obtained. Specifically, RA-2Me, RA-3Me, and RA-4Me were synthesized by changing the position of the methyl group, which is an electron-donating group, and RA-25Me and RA-34Me, with two methyl groups on the phenyl ring, were synthesized by introducing an extra methyl group. To investigate the effect of fluorine atoms, which are electron-withdrawing as opposed to the methyl group, RA-2F, RA-4F, RA-24F, and RA-pentafluoride (PF) were also successfully synthesized. […] AD-related therapeutic agents are required to penetrate the BBB and reach their target. […] Given that ramalin and its derivatives are water-soluble low-molecular-weight compounds and that their lipophilicities and hydrophilicities balance out, their influence on AlogP, which indicates lipophilicity, was not significant. Additionally, given their PSA values (90 Å^2 < PSA < 140 Å^2), they are considered to be advantageous in terms of BBB penetration.

T1 sequence (P56817 46-501): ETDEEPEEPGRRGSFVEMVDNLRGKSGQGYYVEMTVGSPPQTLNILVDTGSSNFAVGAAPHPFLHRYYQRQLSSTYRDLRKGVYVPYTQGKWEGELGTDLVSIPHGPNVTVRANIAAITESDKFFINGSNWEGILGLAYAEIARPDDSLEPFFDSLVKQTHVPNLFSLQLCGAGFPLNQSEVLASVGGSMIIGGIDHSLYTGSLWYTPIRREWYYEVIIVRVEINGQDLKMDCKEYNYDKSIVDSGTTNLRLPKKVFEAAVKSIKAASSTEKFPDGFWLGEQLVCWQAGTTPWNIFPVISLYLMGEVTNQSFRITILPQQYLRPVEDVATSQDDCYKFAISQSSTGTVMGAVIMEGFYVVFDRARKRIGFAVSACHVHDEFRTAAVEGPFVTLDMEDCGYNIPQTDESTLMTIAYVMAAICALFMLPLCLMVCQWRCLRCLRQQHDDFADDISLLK

Row | SMILES | IC50 [1] [µM] | IC50 (BACE-1) [µM] | NO inhibitory (anti-inflammatory) activity (RAW 264.7 cells [2]) | Cytotoxicity (cell viability, MTT) (RAW 264.7 cells [3]) | Purity after 14 h in water [4] [%]
1 | N[C@@H](CCC(=O)NNc1ccccc1F)C(=O)O [RA-2F, N^5-((2-Fluorophenyl)amino)-L-glutamine] | 4.42 | 18.8 ± 3.86 | concentration-dependent NO inhibition | – | –
2 | Cc1ccccc1NNC(=O)CC[C@H](N)C(=O)O [RA-2Me, N^5-(o-Tolylamino)-L-glutamine] | 2.79 | 15 ± 4.92 | weak anti-inflammatory effects | – | –
3 | Cc1cccc(NNC(=O)CC[C@H](N)C(=O)O)c1 [RA-3Me, N^5-(m-Tolylamino)-L-glutamine] | 5.3 | 22.5 ± 0.69 | weak anti-inflammatory effects | – | –
4 | N[C@@H](CCC(=O)NNc1ccc(F)cc1)C(=O)O [RA-4F, N^5-((4-Fluorophenyl)amino)-L-glutamine] | 4.16 | 20.1 ± 4.78 | concentration-dependent NO inhibition | – | –
5 | Cc1ccc(NNC(=O)CC[C@H](N)C(=O)O)cc1 [RA-4Me, N^5-(p-Tolylamino)-L-glutamine] | 3.91 | 13 ± 1.62 | weak anti-inflammatory effects | – | –
6 | N[C@@H](CCC(=O)NNc1ccc(F)cc1F)C(=O)O [RA-24F, N^5-((2,4-Difluorophenyl)amino)-L-glutamine] | 5.32 | – | concentration-dependent NO inhibition; also recorded: stronger anti-inflammatory effect than ramalin | without cytotoxicity | –
7 | Cc1ccc(C)c(NNC(=O)CC[C@H](N)C(=O)O)c1 [RA-25Me, N^5-((2,5-Dimethylphenyl)amino)-L-glutamine] | 4.5 | 9.81 ± 1.21 | concentration-dependent NO inhibition | – | –
8 | Cc1ccc(NNC(=O)CC[C@H](N)C(=O)O)cc1C [RA-34Me, N^5-((3,4-Dimethylphenyl)amino)-L-glutamine] | 4.46 | 13.1 ± 1.52 | concentration-dependent NO inhibition | – | –
9 | N[C@@H](CCC(=O)NNc1c(F)c(F)c(F)c(F)c1F)C(=O)O [RA-PF, N^5-((Perfluorophenyl)amino)-L-glutamine] | – | 14.6 ± 6.08 | concentration-dependent NO inhibition | – | –
10 | NC(CCC(=O)NNc1ccccc1O)C(=O)O (stereo not drawn) [Ramalin, ramalin] | – | – | – | – | 83
